Experimental data: patent US20250352615A1, “COMPOSITIONS AND METHODS FOR THE MODULATION OF PIEZO1 AND TRPV4” (Duke University, priority 2021, published 2025)

Tested on: human stellate cells
Assay: Gene expression (RT-PCR) in Yoda1-treated human stellate cells
Format: cell-based
Protocol: Mouse and human stellate cells were prepared and maintained in culture as previously described Swain et al., JCI Insight 7: e158288 (2022). Summarized here: Mouse and human PSCs were isolated using collagenase digestion. Modified Krebs Henseleit Buffer (KHB) solution (100 mL) was prepared as described previously in Romac et al., Nat. Commun. 9(1): 1715 (2018). Pancreatic tissue was digested with 2 mg of collagenase NB 8 (SERVA, catalog 17456) dissolved in 10 mL of modified KHB solution containing 1 mg soybean trypsin inhibitor (SBTI 1-S; Millipore Sigma, catalog T9003) and 20 mg BSA (Thermo Fisher Scientific; BP1600-100). Digestion solution (5 mL) was used to inflate the pancreas. Pancreas with 5 mL of digestion solution was incubated in a shaking water bath for 10 minutes at 37° C. The solution was then discarded. The pancreas tissue was cut into small pieces and digested with fresh 5 mL digestion buffer. Tissue was incubated in a shaking water bath for 40 minutes at 37° C. The cells were then separated from tissue by pipetting up-down with a 10 mL pipette and passed sequentially through a 70 μm and a 40 μm cell strainer. The filtrate was centrifuged at 150×g for 3 minutes at room temperature. The cells were washed with 10 mL Leibovitz's media (Thermo Fisher Scientific, catalog 11415-064), passed through a 20 μm filter, and centrifuged at 80 g for 3 minutes at room temperature. The supernate was removed, and isolated stellate cells were plated on a thin-layered Matrigel-coated glass bottom culture plate (MatTek, P35G-0-14-C). Before plating the cells, Matrigel solution (Corning, catalog 354234) at a ratio of 1.5:100 DMEM/F12 (Thermo Fisher Scientific, catalog 11330-032) was poured onto the culture plate and incubated for 2 hours at 37° C. to form a thin layer of Matrigel coating. Matrigel mixture was removed, and the plate was washed with PBS before cells were plated. Cell culture media, DMEM/F12 with 5% FBS was used for mouse stellate cells. Fresh, human pancreatic tissue (provided by Duke University's BioRepository & Precision Pathology Center under IRB approval) was digested with collagenase as described above with modifications. Collagenase (2.5 mg) in 10 mL of modified KHB solution was used for digestion. The digested tissues were filtered through a 100 μm cell strainer. The cells were cultured with DMEM/F12 with 10% FBS in a Matrigel-coated plate. After 24 hours, the cell media was replaced with fresh media to remove unattached and dead cells. After 2 days, cells were immunostained for GFAP and used for experiments. Perinuclear fat droplets were stained with BODIPY 493/503 (4,4-Difluoro-1,3,5,7,8-Pentamethyl-4-Bora-3a,4a-Diaza-s-Indacene; Invitrogen, catalog D3922) to confirm stellate cell quiescence.
Yoda 1 was resuspended in DMSO at 25 mM stock solution. […]

[1] = Yoda1, 24 hr, human stellate cells, preliminary

Clc1cccc(Cl)c1CSc1nnc(-c2cnccn2)s1 [Yoda1]
expression of fibronectin and IL-6 (Yoda1 25 μM, 24 hr): increased expression of fibronectin and IL-6
ACTA2 mRNA expression [1]: decreases ACTA2
CD10 mRNA expression [1]: increases CD10 expression
TRPV4 mRNA levels (human PSCs, 24 hr, Yoda1 5 μm and 25 μM): upregulates TRPV4 expression in PSCs
